From patent publication US20140243404A1, “UNIQUE HALOGEN-INDUCED CYCLIZATIONS, REAGENTS THEREFOR, AND COMPOUNDS PRODUCED THEREBY” (The Trustees of Columbia University in the City of New York, priority 2010, published 2014)
Like-named read-outs stand apart in the source and are kept apart here. Each block holds one compound with its values, some of them ahead of it.

Columns and labels:
[1] = Storage and handling stability of the halonium reagents; assay type: physicochemical
[2] = Solubility of the halonium reagents in organic solvents; assay type: physicochemical
[3] = system: reverse transcriptases of the Human Immunodeficiency Virus; details: published indications, refs 7c, 7d, cited from earlier work

stable for ([1]; ambient temperature, enclosed vial): at least 1 week
stable for ([1]; −20° C.): a year or more
solubility ([2]; acetone, methanol, ethanol, THF, reacts with these solvents): soluble
solubility ([2]; ambient temperature, CH2Cl2, 1,2-dichloroethane, chloroform, toluene): moderately to slightly soluble
solubility ([2]; ambient temperature, MeNO2, EtNO2, MeCN, DMSO, DMF, EtOAc): fully soluble
solubility ([2]; ambient temperature, benzene, hexanes, pentane): insoluble
solubility ([2]; several organic solvents): good solubility
SMILES: CC[S+](Br)CC [BDSB, bromodiethylsulfonium bromopentachloroantimonate]

SMILES: C=C1CC[C@H]2C(C)(C)[C@@H](Br)CC[C@]2(C)[C@@H]1Cc1cc(O)c(C=O)cc1O [peyssonol A]
inhibitor of the reverse transcriptases of the Human Immunodeficiency Virus [3]: allosteric inhibitor of the reverse transcriptases
inhibitor of the reverse transcriptases of the Human Immunodeficiency Virus ([3]; listed as peysonnol A): possessed such activity

stable for ([1]; −20° C.): at least several months
SMILES: CC[S+](Cl)CC [CDSC, Chlorodiethylsulfonium hexachloroantimonate]

SMILES: CC1=CC[C@H]2C(C)(C)[C@@H](Br)CC[C@]2(C)[C@@H]1Cc1cc(O)c(CC(=O)O)cc1O [peyssonoic acid A]
inhibitor of the reverse transcriptases of the Human Immunodeficiency Virus [3]: possessed such activity
